# Tests used:
# Format in all cases: biochemical
# Settings in all cases: for Ki: inhibitor concentration that yields half the maximal rate of inactivation; for kinact: maximal rate of inactivation
# LSD1 = LSD1 (Homo sapiens, UniProt O60341); assay: HRP-coupled amine oxidase assay, time-dependent inactivation of LSD1
# Procedure: (§1) For example, in vitro enzymatic assays may be performed in which hydrogen peroxide generated from reoxidation of the FAD cofactor by molecular oxygen by LSD1 or MAOs is monitored, e.g., using a horseradish peroxidase (HRP) coupled assay. The enzyme may be incubated with an appropriate peptide substrate that includes a dimethylated lysine residue, as well as an arylcyclopropylamine compound of the invention. A fluorogenic substrate may be included in the reaction, which upon reaction with H2O2 produced by the enzyme produces a fluorescent substrate that may be detected. Inhibition kinetics may then be determined by appropriate fitting of the data.
# The C-terminal GYG was added to allow for quantification of the peptide concentration.
# (§2) The peroxide production generated from reoxidation of the FAD cofactor by molecular oxygen by LSD1 or MAOs was monitored using a horseradish peroxidase (HRP) coupled assay (FIG. 1). Amplex red was used as the fluorogenic electron acceptor and the fluorescence (excitation 560 nm, emission 590 nm) was measured using a Molecular Devices Spectra Max Gemini EM plate reader. The inhibition kinetics were determined by fitting the progress curves to eq. 1 describing time-dependent inactivation to determine kobs:
# (§3) product=(vi/kobs)(1−e^−k^obs^t) (1)
# (§4) where vi is the initial rate prior to inactivation, t is time and kobs is the observed rate of inactivation. The resulting values were plotted as a function of inhibitor concentration to obtain values of Ki and kinact according to eq. 2.
# (§5) where kinact is the maximal rate of inactivation and Ki is the inhibitor concentration that yields half that rate of inactivation.
# MAO A = biological target: T1, MAO A (Homo sapiens, UniProt P21397); assay: HRP-coupled amine oxidase assay, time-dependent inactivation of MAO A
# T1 sequence (P21397 1-527): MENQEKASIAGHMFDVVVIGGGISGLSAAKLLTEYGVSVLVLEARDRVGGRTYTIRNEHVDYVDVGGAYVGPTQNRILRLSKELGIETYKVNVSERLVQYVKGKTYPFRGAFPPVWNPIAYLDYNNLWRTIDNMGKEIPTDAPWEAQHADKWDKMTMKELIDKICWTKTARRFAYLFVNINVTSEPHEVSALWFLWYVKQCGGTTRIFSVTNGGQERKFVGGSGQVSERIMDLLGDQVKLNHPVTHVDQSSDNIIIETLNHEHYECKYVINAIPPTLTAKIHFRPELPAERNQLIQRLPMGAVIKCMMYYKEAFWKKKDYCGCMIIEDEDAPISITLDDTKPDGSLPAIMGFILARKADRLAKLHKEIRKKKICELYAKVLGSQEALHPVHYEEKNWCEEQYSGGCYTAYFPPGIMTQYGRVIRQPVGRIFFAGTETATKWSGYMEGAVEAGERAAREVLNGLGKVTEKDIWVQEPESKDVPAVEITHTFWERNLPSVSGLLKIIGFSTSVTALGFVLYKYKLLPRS
# Procedure: as §1, §2, §3, §4, §5
# MAO B = biological target: T2, MAO B (Homo sapiens, UniProt P27338); assay: HRP-coupled amine oxidase assay, time-dependent inactivation of MAO B
# T2 sequence (P27338 1-520): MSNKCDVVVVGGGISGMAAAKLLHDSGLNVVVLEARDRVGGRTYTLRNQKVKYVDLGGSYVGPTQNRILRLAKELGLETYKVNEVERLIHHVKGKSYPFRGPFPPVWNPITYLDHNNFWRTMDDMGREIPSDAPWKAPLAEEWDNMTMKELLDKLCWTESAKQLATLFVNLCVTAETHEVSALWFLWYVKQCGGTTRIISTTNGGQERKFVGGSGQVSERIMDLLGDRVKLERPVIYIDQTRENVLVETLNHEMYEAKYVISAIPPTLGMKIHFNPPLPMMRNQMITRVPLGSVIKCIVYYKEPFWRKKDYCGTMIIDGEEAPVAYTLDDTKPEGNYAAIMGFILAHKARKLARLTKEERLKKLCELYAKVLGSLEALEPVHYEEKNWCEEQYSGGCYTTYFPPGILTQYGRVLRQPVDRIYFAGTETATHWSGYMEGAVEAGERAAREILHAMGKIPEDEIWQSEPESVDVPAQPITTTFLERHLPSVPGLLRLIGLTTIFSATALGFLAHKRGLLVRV
# Procedure: as §1, §2, §3, §4, §5
SMILES,kinact/KI (LSD1) [M⁻¹ s⁻¹],Ki (LSD1) [µM],kinact (LSD1) [s⁻¹],kinact/KI (MAO A) [M⁻¹ s⁻¹],Ki (MAO A) [µM],kinact (MAO A) [s⁻¹],kinact/KI (MAO B) [M⁻¹ s⁻¹],Ki (MAO B) [µM],kinact (MAO B) [s⁻¹]
CCOc1ccc(C2CC2N)cc1 (stereo not shown) [compound 1],45,456 ± 86,0.0204 ± 0.0018,3140,4.3 ± 0.8,0.0135 ± 0.0004,762,63 ± 10,0.048 ± 0.004
CC(C)Oc1ccc(C2CC2N)cc1 (stereo not shown) [compound 2],54,352 ± 76,0.0192 ± 0.0017,1320,19.7 ± 4.6,0.026 ± 0.002,383,106 ± 20,0.046 ± 0.006
CC(C)(C)c1ccc(Sc2ccc(C3CC3N)cc2)cc1 (stereo not shown) [compound 5],40,,0.0215 ± 0.003,,,,,,
NC1CC1c1ccc(Oc2ccccc2)cc1 (stereo not shown) [compound 3],,,,5720,12.4 ± 4.3,0.071 ± 0.007,1100,29.5 ± 4.4,0.0623 ± 0.0018
NC1CC1c1cccc(OCc2ccccc2)c1 (stereo not shown) [compound 4],33,760 ± 280,,,,,,,
